Experimental data as given in patent US8637684B2, “Tautomycetin and tautomycetin analog biosynthesis” (Wisconsin Alumni Research Foundation, priority 2010, dated 2014).

Tests used:
SHP2 = biological target: T1, SHP2 (Homo sapiens, UniProt Q06124); experiment: PTP activity assay with pNPP as substrate: SHP2; format: biochemical
T1 construct: The expression and purification of the SHP2 catalytic domain (residues 262-528) were described previously; made in house
T1 sequence (Q06124 262-528): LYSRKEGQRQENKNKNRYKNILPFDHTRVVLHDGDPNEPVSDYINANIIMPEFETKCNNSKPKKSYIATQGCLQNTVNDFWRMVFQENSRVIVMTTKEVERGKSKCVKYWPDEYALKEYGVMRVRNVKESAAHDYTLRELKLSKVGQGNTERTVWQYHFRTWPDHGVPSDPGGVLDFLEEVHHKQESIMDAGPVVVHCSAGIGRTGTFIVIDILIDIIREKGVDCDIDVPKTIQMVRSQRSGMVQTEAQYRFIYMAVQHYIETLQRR
Protocol: The PTP activity was assayed using pNPP as a substrate at 25° C. in 50 mM 3,3-dimethylglutarate buffer, pH 7.0, containing 1 mM EDTA with an ionic strength of 0.15 M adjusted by NaCl. TTM, TTN and the engineered analogs were analyzed for inhibition of a panel of PTPs at 10 μM compound concentration. For each enzyme screened, test compounds were diluted to 20 μM in 100 μL and combined with 50 μL pNPP at a concentration of 4×Km. The reaction was initiated by the addition of 50 μL of 4× concentrated enzyme and pNPP was allowed to convert to the product p-nitrophenol. The reaction was quenched by the addition of 50 μL of 5N NaOH. Nonenzymatic hydrolysis of pNPP was corrected by measuring the control without the addition of enzyme. Production of p-nitrophenol was monitored by a Spectra MAX385 microplate spectrophotometer (Molecular Devices) at 405 nm using a molar extinction coefficient of 18,000 M^−1 cm^−1. IC50 values were calculated by fitting the absorbance at 405 nm versus inhibitor concentration to the following equation: AI/A0=IC50/(IC50+[I]) where AI is the absorbance at 405 nm of the sample in the presence of inhibitor; Ao is the absorbance at 405 nm in the absence of inhibitor; and [I] is the concentration of the inhibitor.
The effect of the compounds on PTP-catalyzed hydrolysis of p-nitrophenyl phosphate (pNPP) was assessed at pH 7 and 25° C. Members of the PTP superfamily that were included in the screen included the cytosolic PTPs, PTP1B, SHP1, SHP2, Lyp, HePTP, Meg2, and FAP1, the receptor-like PTPs, CD45, LAR, and PTPα, the dual specificity phosphatases VHR, VHX, and Cdc14, and the low molecular weight PTP.
Therefore, all of the IC50 values reported in this study directly reflect the true affinity of the compound for the enzymes tested.

[1] = tested on: TCR-mediated tyrosine phosphorylation in Jurkat T cells; experiment: Anti-CD3 (TCR) induced tyrosine phosphorylation in Jurkat T cells, immunoblot; format: cell-based; settings: 2-4 μM, 2 hours pretreatment, anti-CD3 stimulation
Protocol: Jurkat T cells were grown at 37° C. under an atmosphere of 5% CO2 in RPMI medium 1640 supplemented with 10% FBS. Cells were pretreated with different concentrations of TTN, TTN D-1, or TTM for 2 hours and stimulated with […] anti-CD3 antibody (OKT3; eBioscience) for 5 min and 30 min, respectively. Subsequently, cells were spinned down at 2000 rpm in 4° C., and cell pellets were lysed in 50 mM Tris-HCl (pH 7.5), 150 mM NaCl, 10% glycerol, 1% NP-40, 50 mM NaF, 10 mM pyrophosphate, 5 mM idoacetate, 1 mM sodium orthovanadate, and the protease inhibitor mixture. After 30 min lysing on ice, the cell lysates were centrifuged at 13,200 rpm for 15 min. Total cellular proteins were separated by SDS/PAGE and transferred electrophoretically to nitrocellulose membrane, which was immunoblotted by appropriate antibodies followed by incubation with HRP-conjugated secondary antibodies. Blots were developed using Pierce Pico ECL reagent (Thermo) according to the manufacturer's instructions.
TTN induces immunosuppression by suppression of TCR-mediated tyrosine phosphorylation and ERK1/2 activity in T cells (Shim et al., 2002). However, the mechanism of action for TTN's ability to block TCR signaling remains undefined. […]

[2] = tested on: SHP2/E76K-expressing hematopoietic progenitors; experiment: 3H-thymidine incorporation assay of transduced bone marrow LDMNCs with GM-CSF; format: cell-based; settings: 2 μM TTN for 24 hrs, GM-CSF 1 ng/mL
Protocol: Transduced, EGFP+ cells were subjected to ^3H-thymidine incorporation assays, as previously described (Munugalavadla et al., 2007), or plated at a concentration of 8000 cells/mL in 0.9% methylcellulose-based media containing IMDM, 2 mM glutamine, 1% penicillin/streptomycin, 80 μM β-mercaptoethanol, 30% FBS, and GM-CSF 1 ng/mL or with saturating concentrations of growth factors including IL-3 200 U/mL, erythropoietin 4 U/mL, and stem cell factor (SCF) 100 ng/mL. All growth factors were from Peprotech. Cultures were incubated in a humidified incubator at 37° C. in 5% CO2 for 7 days and were scored for total colonies and for morphology to determine colony forming unit (CFU)-granulocyte-macrophage (GM) or CFU-monocyte (M).
For biochemical studies, macrophage progenitor cells expressing empty vector (MIEG3), wild-type SHP2, or SHP2/E76K were serum- and growth factor-deprived for 24 hours. Cells were pre-treated with DMSO or 2 μM TTN for 2 hours, and then cultures either remained unstimulated or were stimulated with GM-CSF at 50 ng/mL for 60 minutes. […] To provide further evidence that SHP2 is a molecular target of TTN, the inventors determined the X-ray crystal structure of SHP2 in complex with TTN D-1, as crystallization attempts for the SHP2-TTN complex were unsuccessful. […]

## tautomycetin [TTN]
SHP2; from IC50 values
  preference for SHP2 over all PTPs examined: ≥ 5 fold
SHP2; pNPP as substrate at Km, pH 7.0, 25° C., I = 0.15 M
  IC50: 2900 nM
[1]
  effect on TCR-mediated tyrosine phosphorylation: efficiently attenuated
[2]
  effect on GM-CSF-stimulated proliferation of SHP2/E76K-expressing progenitors: effectively reduced the proliferation
